Experimental data: patent publication US5866573A, “Pyrazinone thrombin inhibitors” (Merck & Co., Inc., priority 1997, dated 1999)

Assays:
[1] = biological target: human α-thrombin (Homo sapiens, UniProt P00734); assay: In vitro assay for determining proteinase inhibition: human α-thrombin; format: biochemical; conditions: inhibitory activity against human thrombin, class symbols of Tables 1-3; 25° C., pH 7.4
Method: Assays of human α-thrombin and human trypsin were performed by the methods substantially as described in Thrombosis Research, Issue No. 70, page 173 (1993) by S. D. Lewis et al.
The assays were carried out at 25° C. in 0.05M TRIS buffer pH 7.4, 0.15M NaCl, 0.1% PEG. Trypsin assays also contained 1 mM CaCl2. In assays wherein rates of hydrolysis of a p-nitroanilide (pna) substrate were determined, a Thermomax 96-well plate reader was used was used to measure (at 405 nm) the time dependent appearance of p-nitroaniline. sar-PR-pna was used to assay human α-thrombin (Km =125 μM) and bovine trypsin (Km =125 μM). p-Nitroanilide substrate concentration was determined from measurements of absorbance at 342 nm using an extinction coefficient of 8270 cm^-1 M^-1.
In certain studies with potent inhibitors (Ki <10 nM) where the degree of inhibition of thrombin was high, a more sensitive activity assay was employed. In this assay the rate of thrombin catalyzed hydrolysis of the fluorogenic substrate Z-GPR-afc (Km =27 μM) was determined from the increase in fluorescence at 500 nm (excitation at 400 nm) associated with production of 7-amino-4-trifluoromethyl coumarin. Concentrations of stock solutions of Z-GPR-afc were determined from measurements of absorbance at 380 nm of the 7-amino-4-trifluoromethyl coumarin produced upon complete hydrolysis of an aliquot of the stock solution by thrombin.
Activity assays were performed by diluting a stock solution of substrate at least tenfold to a final concentration ≤0.1 Km into a solution containing enzyme or enzyme equilibrated with inhibitor. Times required to achieve equilibration between enzyme and inhibitor were determined in control experiments. Initial velocities of product formation in the absence (Vo) or presence of inhibitor (Vi) were measured. […]

[2] = system: thrombotic occlusion; assay: In vivo rat ferric chloride assay to measure thrombotic occlusions; set-up: species or system Male Sprague-Dawley rats; conditions: 10 μg/kg/min i.v. infusion from 60 min before 35% FeCl3 and 90 min after, 6 rats
Method: Studies of 3 (2-Phenylethylarnino)-6-methyl-1-(2-amino-6-following rat ferric chloride assay substantially as described in Thrombosis Research, No. 60, page 269(1990) by Kurtz et al were used to determine in vivo activity of the thrombin inhibitors of the invention. Male Sprague-Dawley rats (b)ody weights 200-350 grams) were anesthetized with dial-urethane solution (0.1 ml/100 gm body weight i.p.), and a lateral tail vein was cannulated with a 23 gauge needle connected to a 12 inch length of PE50 tubing. The tubing was attached to a 3-way valve by a tubing adapter. Saline (control) or test compound, as appropriate, was administered via the tail vein catheter. A tracheostomy was performed with a 0.75 inch length of PE205 tubing. The right carotid artery is exposed and a 1.3 mm diameter Doppler flow probe was placed on the vessel. Body temperature was maintained at 37° C. using a heat lamp.
6 rats were randomized to continuous intravenous infusions of saline or test compound administered via the tail vein. Test compound was administered at a rate of 10 μg/kg/min. Treatment infusions were initiated 60 min before the placement of a 3 mm square piece of Whatman No. 1 filter paper saturated with 35% FeCl3 onto the exposed carotid artery distal to the flow probe. […] Time to occlusion was defined as the time from application of FeCl3 to thrombotic occlusion of the vessel.

| Ki [1] [nM] | Compound | efficacy in rat ferric chloride assay [2] | rats showing evidence of thrombotic occlusion [2] |
| --- | --- | --- | --- |
| ≥ 1 | CCNC(=O)COc1ccc(Cl)cc1CNC(=O)Cn1c(C)cnc(NC(C)(C)C)c1=O [t-C4 H9] |  |  |
| ≥ 1 | Cc1nc(N)ccc1CNC(=O)Cn1c(C)cnc(NC(C)(C)Cc2ccccc2)c1=O [PhCH2 C(CH3)2] |  |  |
| < 1 | CCNC(=O)COc1ccccc1CNC(=O)Cn1c(C)cnc(NCCc2ccccc2)c1=O [H, NHC2 H5] |  |  |
|  | Cc1nc(N)ccc1CNC(=O)Cn1c(C)cnc(NCCc2ccccc2)c1=O [test compound] | fully efficacious | None of the rats treated with the test compound showed evidence of thrombotic occlusion |
